The values that follow come from PubChem BioAssay AID288 (DTP/NCI, 2004).

In this assay the test system is BDF1 mice, M5076 sarcoma s.c., survival/tumor T/C. The assay is described as follows: NCI In Vivo Anticancer Drug Screen. Data for tumor model Sarcoma M5076 (subcutaneous) in B6D2F1 (BDF1) mice. Here is the method:
The antitumor activity of compounds was measured in mice bearing transplantable tumors. Survival or tumor size were measured and the results are expressed as the measurement made in the treated group (T) divided by the measurement made in the vehicle treated control group (C). The tumor model used in this assay is Sarcoma M5076 (subcutaneous) in B6D2F1 (BDF1) mice

The mark [1] stands for this setting: endpoint: median survival time, dose: 50.0 mg/kg/injection, schedule: Q01DX009 (ip), vehicle: saline with Tween-80, higher = longer survival.
Setting [2] is: endpoint: median survival time, dose: 100.0 mg/kg/injection, schedule: Q01DX009 (ip), vehicle: saline with Tween-80, higher = longer survival.
Setting [3] is: endpoint: median survival time, dose: 200.0 mg/kg/injection, schedule: Q01DX009 (ip), vehicle: saline with Tween-80, higher = longer survival.
Where [4] appears, read: endpoint: median tumor weight (est.), dose: 100.0 mg/kg/injection, schedule: Q01DX009 (ip), vehicle: saline with Tween-80, higher = larger tumour.
Where [5] appears, read: endpoint: median tumor weight (est.), dose: 200.0 mg/kg/injection, schedule: Q01DX009 (ip), vehicle: saline with Tween-80, higher = larger tumour.
The mark [6] stands for this setting: endpoint: median tumor weight (est.), dose: 50.0 mg/kg/injection, schedule: Q01DX009 (ip), vehicle: saline with Tween-80, higher = larger tumour.

Where “and” joins values, the source holds several entries; their conditions need not be identical. Identical values can stand only once. Records with an inconclusive call do not appear. Numbered stars: 1 amine (or outer) side, 2 acyl side, 3 side chain; on linkers, the order of the positions; unused ones are H or OH. Bridge positions count the residues as written; N and C are the ends. Square brackets hold non-standard residues; d marks the D form. Peptide text beside a SMILES is read from it. I, II: the chains in the order shown. Actinocin(9to1) = Cc1c2oc3c(C)ccc(C(=O)[*:1])c3nc-2c(C(=O)[*:2])c(N)c1=O; aThr = C[C@H](O)[C@H](N)C(=O)O; NMeV = CN[C@H](C(=O)O)C(C)C; Sar = CNCC(=O)O

In the case of `CC1(CO)C(O)CCC2(C)C1CCC1CC3CC12CCC3(O)CO` (stereo unspecified), the T/C is, setting by setting: (endpoint: median survival time, dose: 23.3 mg/kg/injection, schedule: Q01DX017 (sc), vehicle: Klucel (hydroxypropylcellulose) (HPC), higher = longer survival) 93 % of control; (endpoint: median survival time, dose: 38.9 mg/kg/injection, schedule: Q01DX017 (oral), vehicle: Klucel (hydroxypropylcellulose) (HPC), higher = longer survival) 93 % of control; (endpoint: median survival time, dose: 64.8 mg/kg/injection, schedule: Q01DX017 (ip), vehicle: Klucel (hydroxypropylcellulose) (HPC), higher = longer survival) 124 % of control; (endpoint: median survival time, dose: 64.8 mg/kg/injection, schedule: Q01DX017 (oral), vehicle: Klucel (hydroxypropylcellulose) (HPC), higher = longer survival) 102 % of control and 109 % of control; (endpoint: median survival time, dose: 64.8 mg/kg/injection, schedule: Q01DX017 (sc), vehicle: Klucel (hydroxypropylcellulose) (HPC), higher = longer survival) 163 % of control; (endpoint: median survival time, dose: 77.8 mg/kg/injection, schedule: Q04DX005 (ip), vehicle: Klucel (hydroxypropylcellulose) (HPC), higher = longer survival) 103 % of control. Also, the T/C is 116 % of control (endpoint: median survival time, dose: 83.7 mg/kg/injection, schedule: Q01DX017 (oral), vehicle: Klucel (hydroxypropylcellulose) (HPC), higher = longer survival); 106 % of control (endpoint: median survival time, dose: 100.0 mg/kg/injection, schedule: Q03HX003 (sc), vehicle: Klucel (hydroxypropylcellulose) (HPC), higher = longer survival); 102 % of control (endpoint: median survival time, dose: 100.0 mg/kg/injection, schedule: Q03HX003 (sc), vehicle: saline, higher = longer survival); 116 % of control (endpoint: median survival time, dose: 108.0 mg/kg/injection, schedule: Q01DX017 (ip), vehicle: Klucel (hydroxypropylcellulose) (HPC), higher = longer survival); 100 % of control and 118 % of control (endpoint: median survival time, dose: 108.0 mg/kg/injection, schedule: Q01DX017 (oral), vehicle: Klucel (hydroxypropylcellulose) (HPC), higher = longer survival); 113 % of control and 121 % of control (endpoint: median survival time, dose: 108.0 mg/kg/injection, schedule: Q01DX017 (sc), vehicle: Klucel (hydroxypropylcellulose) (HPC), higher = longer survival). The T/C was 103 % of control (endpoint: median survival time, dose: 130.0 mg/kg/injection, schedule: Q04DX005 (ip), vehicle: Klucel (hydroxypropylcellulose) (HPC), higher = longer survival); 118 % of control (endpoint: median survival time, dose: 139.0 mg/kg/injection, schedule: Q01DX017 (oral), vehicle: Klucel (hydroxypropylcellulose) (HPC), higher = longer survival); 116 % of control (endpoint: median survival time, dose: 180.0 mg/kg/injection, schedule: Q01DX017 (oral), vehicle: Klucel (hydroxypropylcellulose) (HPC), higher = longer survival); 98 % of control (endpoint: median survival time, dose: 200.0 mg/kg/injection, schedule: Q03HX003 (sc), vehicle: Klucel (hydroxypropylcellulose) (HPC), higher = longer survival); 100 % of control (endpoint: median survival time, dose: 200.0 mg/kg/injection, schedule: Q03HX003 (sc), vehicle: saline, higher = longer survival); 104 % of control (endpoint: median survival time, dose: 216.0 mg/kg/injection, schedule: Q04DX005 (ip), vehicle: Klucel (hydroxypropylcellulose) (HPC), higher = longer survival). In addition, the T/C was 159 % of control (endpoint: median survival time, dose: 300.0 mg/kg/injection, schedule: Q01DX017 (oral), vehicle: Klucel (hydroxypropylcellulose) (HPC), higher = longer survival); 106 % of control (endpoint: median survival time, dose: 360.0 mg/kg/injection, schedule: Q04DX005 (ip), vehicle: Klucel (hydroxypropylcellulose) (HPC), higher = longer survival); 109 % of control (endpoint: median survival time, dose: 600.0 mg/kg/injection, schedule: Q04DX005 (ip), vehicle: Klucel (hydroxypropylcellulose) (HPC), higher = longer survival).

In the case of `COc1cc2c[n+](C)c3c4cc5c(cc4ccc3c2cc1OC)OCO5`, the T/C (endpoint: mean tumor weight, dose: 10.0 mg/kg/injection, schedule: Q02DX011 (ip), vehicle: Klucel (hydroxypropylcellulose) (HPC), higher = larger tumour) is 73 % of control; the T/C (endpoint: median tumor weight (est.), dose: 10.0 mg/kg/injection, schedule: Q02DX011 (ip), vehicle: Klucel (hydroxypropylcellulose) (HPC), higher = larger tumour) is 91 % of control; the T/C (endpoint: median tumor weight (est.), dose: 20.0 mg/kg/injection, schedule: Q02DX011 (ip), vehicle: Klucel (hydroxypropylcellulose) (HPC), higher = larger tumour) is 56 % of control.

Consider `C[C@@H](CN1CC(=O)NC(=O)C1)N1CC(=O)NC(=O)C1`, for which the T/C was 119 % of control (endpoint: median survival time, dose: 32.0 mg/kg/injection, schedule: Q01DX009 (ip), vehicle: saline with Tween-80, higher = longer survival); 108 % of control and 111 % of control (endpoint: median survival time, dose: 64.0 mg/kg/injection, schedule: Q01DX009 (ip), vehicle: saline with Tween-80, higher = longer survival); 115 % of control and 119 % of control (endpoint: median survival time, dose: 128.0 mg/kg/injection, schedule: Q01DX009 (ip), vehicle: saline with Tween-80, higher = longer survival); 68 % of control (endpoint: median tumor weight (est.), dose: 32.0 mg/kg/injection, schedule: Q01DX009 (ip), vehicle: saline with Tween-80, higher = larger tumour); 36 % of control and 58 % of control (endpoint: median tumor weight (est.), dose: 64.0 mg/kg/injection, schedule: Q01DX009 (ip), vehicle: saline with Tween-80, higher = larger tumour); 18 % of control and 37 % of control (endpoint: median tumor weight (est.), dose: 128.0 mg/kg/injection, schedule: Q01DX009 (ip), vehicle: saline with Tween-80, higher = larger tumour). Further, the T/C (endpoint: median tumor weight (est.), dose: 256.0 mg/kg/injection, schedule: Q01DX009 (ip), vehicle: saline with Tween-80, higher = larger tumour) was 14 % of control.

For the compound `O=C(O)c1ccc(C(=O)O)c(C(=O)O)c1.[NH-]C1CCCCC1[NH-].[Pt+2]`, the T/C by setting is: (endpoint: median survival time, dose: 0.8 mg/kg/injection, schedule: Q01DX009 (ip), vehicle: sodium bicarbonate, higher = longer survival) 101 % of control; (endpoint: median survival time, dose: 1.5 mg/kg/injection, schedule: Q01DX009 (ip), vehicle: sodium bicarbonate, higher = longer survival) 104 % of control; (endpoint: median survival time, dose: 3.0 mg/kg/injection, schedule: Q01DX009 (ip), vehicle: sodium bicarbonate, higher = longer survival) 108 % of control; (endpoint: median survival time, dose: 6.0 mg/kg/injection, schedule: Q01DX009 (ip), vehicle: sodium bicarbonate, higher = longer survival) 112 % of control; (endpoint: median survival time, dose: 8.64 mg/kg/injection, schedule: Q04DX005 (ip), vehicle: sodium bicarbonate, higher = longer survival) 176 % of control; (endpoint: median survival time, dose: 14.4 mg/kg/injection, schedule: Q04DX005 (ip), vehicle: sodium bicarbonate, higher = longer survival) 216 % of control. Moreover, the T/C reads like this: (endpoint: median tumor weight (est.), dose: 3.11 mg/kg/injection, schedule: Q04DX005 (ip), vehicle: sodium bicarbonate, higher = larger tumour) 14 % of control; (endpoint: median tumor weight (est.), dose: 5.18 mg/kg/injection, schedule: Q04DX005 (ip), vehicle: sodium bicarbonate, higher = larger tumour) 18 % of control.

Turning to `CCOC(=O)CCC1(C(=O)OC)C(=O)CCCCCCCC1C(=O)OC` (stereo unspecified), the T/C was 100 % of control under setting [1], 100 % of control under setting [2] and 115 % of control under setting [3].

With `Cc1cc(C)nc(NS(=O)(=O)c2ccc(NC(=O)C(Cl)(Cl)Cl)cc2)n1`, the T/C is, setting by setting: under setting [1], 88 % of control; under setting [2], 88 % of control; under setting [3], 94 % of control; under setting [4], 171 % of control; under setting [5], 100 % of control.

On to `Cc1c2oc3c(C)ccc(C(=O)N[C@@H]4C(=O)N[C@H](C(C)C)C(=O)N5CCC[C@H]5C(=O)N(C)CC(=O)N(C)[C@@H](C(C)C)C(=O)O[C@H]4C)c3nc-2c(C(=O)N[C@@H]2C(=O)N[C@H](C(C)C)C(=O)N3CCC[C@H]3C(=O)N(C)CC(=O)N(C)[C@@H](C(C)C)C(=O)O[C@H]2C)c(N)c1=O` (I: [aThr][dV]P[Sar][NMeV] / II: [aThr][dV]P[Sar][NMeV]; ester I:1-I:C, II:1-II:C; linker I:N-II:N via Actinocin(9to1)), for which the T/C is 102 % of control (endpoint: median survival time, dose: 0.01 mg/kg/injection, schedule: Q04DX006 (ip), vehicle: saline, higher = longer survival); 95 % of control (endpoint: median survival time, dose: 0.03 mg/kg/injection, schedule: Q04DX006 (ip), vehicle: saline, higher = longer survival); 102 % of control (endpoint: median survival time, dose: 0.06 mg/kg/injection, schedule: Q04DX006 (ip), vehicle: saline, higher = longer survival); 102 % of control (endpoint: median survival time, dose: 0.12 mg/kg/injection, schedule: Q04DX006 (ip), vehicle: saline, higher = longer survival); 78 % of control (endpoint: median tumor weight (est.), dose: 4.7 micrograms/kg/injection, schedule: Q02DX011 (ip), vehicle: saline, higher = larger tumour); 109 % of control (endpoint: median tumor weight (est.), dose: 7.8 micrograms/kg/injection, schedule: Q02DX011 (ip), vehicle: saline, higher = larger tumour). Besides, the T/C is, setting by setting: (endpoint: median tumor weight (est.), dose: 13.0 micrograms/kg/injection, schedule: Q02DX011 (ip), vehicle: saline, higher = larger tumour) 66 % of control; (endpoint: median tumor weight (est.), dose: 21.6 micrograms/kg/injection, schedule: Q02DX011 (ip), vehicle: saline, higher = larger tumour) 83 % of control; (endpoint: median tumor weight (est.), dose: 36.0 micrograms/kg/injection, schedule: Q02DX011 (ip), vehicle: saline, higher = larger tumour) 59 % of control; (endpoint: median tumor weight (est.), dose: 60.0 micrograms/kg/injection, schedule: Q02DX011 (ip), vehicle: saline, higher = larger tumour) 78 % of control; (endpoint: median tumor weight (est.), dose: 100.0 micrograms/kg/injection, schedule: Q02DX011 (ip), vehicle: saline, higher = larger tumour) 51 % of control.

Turning to `CCOC(=O)c1ccc(N2C(=O)OC(C)(C)C2=O)cc1`, the T/C is 108 % of control under setting [1]; 115 % of control under setting [2]; 95 % of control under setting [3]; 99 % of control under setting [6]; 97 % of control under setting [4]; 80 % of control under setting [5].

As to `CCC(NN)C(=O)OCc1ccccc1` (stereo unspecified), the T/C reads like this: under setting [1], 107 % of control; under setting [2], 104 % of control; under setting [3], 104 % of control; under setting [6], 75 % of control; under setting [4], 103 % of control; under setting [5], 109 % of control.

Take `O=[N+]([O-])c1ccc(CSc2ncnc3c2ncn3C2OC(COP(=O)(O)O)C(O)C2O)cc1` (stereo unspecified): the T/C (endpoint: median survival time, dose: 64.8 mg/kg/injection, schedule: Q01DX005 (ip), vehicle: saline, higher = longer survival) is 115 % of control and 118 % of control.
